For data set [1], the system named is reduction of testosterone to dihydrotestosterone. Conditions: literature; cited from earlier work.
In data set [2] the test system is acne. Conditions: 20% preparation, twice daily; Fitton and Goa; cited from earlier work.
The subject of data set [3] is keratinocytes. The settings on record: Passi et al.; cited from earlier work.
The subject of data set [4] is human keratinocytes. Description: Cell proliferation assay. It is filed as cell-based. Conditions: for IC50: Homo sapiens; for potency in inhibiting cell proliferation (in words): in vitro, keratinocytes. On the procedure: Modulation of keratinocyte proliferation.
Cell proliferation assay.
50,000 human keratinocytes from secondary culture were seeded into 24 well plates, in 1 ml DMEM-F12 medium (Green H. (1978) Cell 15:801-805) with growth factors and 10% Fetal Calf Serum. The cells were incubated at 37° C. in 5% CO2 until 30-40% confluency was reached and then the various test materials, dissolved in ethanol, were added in volumes of 0.1-20 μl, to final volume of 0.5 ml. The same volumes of ethanol were added to control cultures, for comparative values of ethanol cytotoxicity. No apparent cytotoxicity was found up to 40 μl ml ethanol. The medium was replaced with fresh medium prior to addition of the test materials. The cultures were further incubated for 3 days at 37° C. and 5% CO2 and then washed with phosphate buffered saline (PBS). Cell numbers were determined using two methods: 1) trypsinization, followed by cell counting; and 2) fixation of the culture with p-formaldehyde 2% in PBS and methylene blue staining, followed by extraction of color and optical density measurement at 650 nm. Both methods were found in good correlation, so that 1 OD unit corresponded to 1,000,000 cells. IC50, i.e., the concentration that caused 50% inhibition of cell proliferation for each of the test materials is presented in Table 1.

The subject of data set [5] is sebaceous glands. The settings on record: topical, literature, cited from earlier work.
The nature of data set [6]: in vitro. The settings on record: human, keratinocytes. On the procedure: The direct effect of the compounds of the invention on the proliferation of human keratinocytes was assessed in vitro using a keratinocyte cell line.
Modulation of keratinocyte proliferation. The effect of di(ethyl salycilate)azelate and di-retinyl azelate on cell proliferation and cell viability was tested in vitro using human keratinocyte culture system.
Keratinocyte cells, as above, were allowed to proliferate in medium, without the test materials, up to 100% confluency, with one exchange of medium during growth. Confluent cultures were incubated with increasing concentrations of the test materials in ethanol for three days at 37° C. and 5% CO2. At the end of the incubation period the cultures were washed with PBS and measured for remaining attached cells using the above described methods.

The test system of data set [7] is comedones, rabbit ear acne model. Briefly: Efficacy in the rabbit ear acne model (comedolytic effect). It is filed as in vivo. The method, then:
See, Lee, et al. Kor. J. Dermatol. 28(5):543-549 (1990).
Efficacy of di(ethyl salicylate)azelate (10%) in the rabbit ear acne model. Three mature male albino rabbits were treated as follows. The external ear canals on both ears were treated once daily for five weekdays for three weeks with 1% crude coal tar in Hydrophilic Ointment USP. Then one ear was treated with antiacne lotion of Example 4 once daily for five weekdays for three weeks while the opposite ear served as an untreated control. Excision biopsies were taken from both sides at the end of three weeks of treatment. […] These were judged to be moderate examples of comedones with distortion of the follicular infundibulum by dense horn.

The test system of data set [8] is chin acne; furunculosis (eczema). Briefly: Anti-acne and anti-inflammatory effect in cats (chin acne, furunculosis). It is filed as in vivo, cat. Conditions: 5% alcoholic solution, twice daily for 14 days. On the procedure: The compounds of the present invention have been shown in animals to alleviate the symptoms of acne. Four cats with persistant chin acne were treated twice daily for 14 days with 5% alcoholic solution of di(ethyl salicylate) azelate. […] The skin lesions disappeared and the bald areas were covered with new hair.
Anti-acne and anti-inflammatory effect of di(ethyl salicylate) azelate. Four cats were admitted to the veterinary clinic with skin lesions identified as chin acne. One additional cat had localized furunculosis (eczema) on the chin. The area of the skin lesions was 1-4 cm^2 at baseline. All animals were previously treated with either benzoyl peroxide or topical steroids with no response. Cats were treated twice daily for 14 days with a 5% alcoholic solution of di(ethyl salicylate) azelate.

For data set [9], the system named is skin of a human subject. Briefly: Human skin irritation test. Conditions: 48 h application, 0.1 ml; observed upon removal and 1, 24, 48 h later; ester 20%; mixture 7.5% azelaic acid + 11% salicylic acid. It is filed as in vivo. On the procedure:
Human skin irritation test. The following lotions (0.1 ml) were applied to the skin of a human subject for 48 hours, using standard skin irritation test chambers (0.64 sq. cm.):
(1) 20% di(ethyl salicylate)azelate (400 mmole/ml), dissolved in PEG-400/ethanol 1:1;
(2) mixture of 7.5% azelaic acid (400 mmole/ml) and 11% salicylic acid (800 mmole/ml), dissolved in PEG-400/ethanol 1:1; and
(3) PEG-400/ethanol 1:1 (placebo).

Data set [10] has as its system skin of rabbits. Description: Acute dermal toxicity/irritation test (modified Draise). Type of data set: in vivo, rabbit. Conditions: 10% and 20%, 0.5 ml, 24 h application, observed 1, 24 and 72 h after removal. The method, then: These findings emphasize a distinct advantage of di(ethyl salicylate)azelate over its parent components.
Acute dermal toxicity/irritation test. The purpose of this study was to evaluate the acute potential dermal irritation effect on skin following the topical application of di(ethyl salicylate) azelate, in rabbits. This test is a modified version of the original Draise method, as described in OECD guidelines. 0.5 ml of either di(ethyl salicylate)azelate (10% or 20%, dissolved in PEG-400/ethanol 1:1) or the vehicle alone were applied to the skin of three rabbits for 24 hours. Rabbits were examined for signs of skin irritation 1, 24 and 72 hours after the removal of the test solutions. […] Based on the current protocol it was concluded that di(ethyl salicylate) azelate is a non-irritant agent.

Data set [11] has as its system skin oiliness of forehead. Briefly: Sebolytic effect (skin oiliness of forehead, Skin Tester). Type of data set: in vivo, human. The settings on record: lotion of Example 5, twice daily, 14 days; prior to treatment 223 units. On the procedure:
Following fourteen days of topical treatment, the skin oiliness of the forehead of a human volunteer, tested using a photometric instrument was reduced from 223 units (resembling "oily skin") to 205 units (normal skin value).
Sebolytic effect of di(ethyl salicylate)azelate. […] Skin oiliness was tested using "Skin Tester, Model STC20" (IMS Ltd., Haifa, Israel) prior to treatment and 14 days thereafter. Prior to treatment, the sebum value was 223 units, typical of oily skin. The sebum value after two weeks of treatment was 205 units, corresponding to normal skin.

The test system of data set [12] is culicoides hypersensitivity. Briefly: Effect on culicoides hypersensitivity in horses. Type of data set: in vivo, horse. The settings on record: 5% alcoholic solution, topically twice daily for two weeks. The method, then: Prior to treatment, the horses had typical occurrence of the disease, including localized dermatitis affecting the mane and poll and the root of the tail. FIG. 1 is a photograph of the mane area of a horse afflicted by culicoides hypersensitivity. […] The skin at the affected areas looked hairless, ridged and scaly. The shoulder area and hind quarters were also affected. The horses were treated topically with a 5% alcoholic solution of di(ethyl salicylate) azelate, twice daily for two weeks.
The effect of di(ethyl salicylate) azelate on culicoides hypersensitivity was tested in two horses with colicoides hypersensitivity. Prior to treatment, both horses had typical occurrence of the disease, including localized dermatitis affecting the mane and poll and the root of the tail. The shoulder area and hind quarters were also affected. The skin at the affected areas looked hairless, ridged and scaly. The horses were treated topically with a 5% alcoholic solution of di(ethyl salicylate)azelate, twice daily for two weeks. […] As clearly seen in the pictures, hair seemed to regrow and the skin looked healthy. This improvement persisted throughout 14 days of treatment and observation.

The mark [13] stands for this setting: Keratinocyte, 72 h, 3 days incubation, 50% inhibition of cell proliferation, Table 1, read-out: IC50 (inhibitory concentration).
[14] abbreviates: keratinocyte cell line, read-out: inhibitory concentration, cell proliferation.
Setting [15] is: cytotoxic concentrations higher than inhibitory concentrations.
Setting [16] is: listed as di(ethyl salicylate) azelate.

Entries after “also recorded” stand apart in the source; their conditions may differ. Like-named read-outs stand apart in the source and are kept apart here.

Take `O=C(O)CCCCCCCC(=O)O` [Azelaic acid, reference compound]: the “inhibition of testosterone reduction to dihydrotestosterone” value in [1] is on record as “competitive inhibitor of the reduction of testosterone to dihydrotestosterone”. The “time of topical application until effective in acne” value in data set [2] is given as 3-6 months. Moreover, the effect on keratinocytes result in data set [3] was “antiproliferative effects on keratinocytes”. The values for the IC50 in data set [4] (setting [13]) and in [4] (setting [14]) were 1500 µM and 1000 µM, respectively. For the same compound, the “skin oiliness / sebum composition, sebum excretion rate, size of sebaceous glands” value was “can not alter skin oiliness” in [5]; “failed to induce specific changes in sebum composition, sebum excretion rate and the size of sebaceous glands” in data set [5] (listed as AZA). The compound also returned a CC50 at 72 h in data set [6] of 4 mM. Moreover, the selectivity ratio in data set [6] (Safety factor (CD50/ID50)) amounted to 2.6; in data set [6] (cytotoxic concentration, times higher than inhibitory concentration) it was 2.6.
As for `CC1=C(/C=C/C(C)=C/C=C/C(C)=C/COC(=O)CCCCCCCC(=O)OC/C=C(C)/C=C/C=C(C)/C=C/C2=C(C)CCCC2(C)C)C(C)(C)CCC1` [Di-retinyl azelate, di-retinyl azelate], the IC50 in [4] (setting [13]) and in data set [4] (setting [14]) was 15 µM in each case. For the same compound, in data set [4], the “potency in inhibiting cell proliferation (in words)” value was “significantly more potent than azelaic acid and salicylic acid”. In addition, the CC50 in [6] came to 100 µM. In [6], this compound gave a CC50 at 72 h of 0.1 mM. Further, the selectivity ratio in data set [6] (Safety factor (CD50/ID50)) is 6.6; in data set [6] (setting [15]) it was 6.6 to 10; in data set [6] (therapeutic safety margin), 6.6 to 10.
For `O=C(O)c1ccccc1O` [Salicylic acid, o-hydroxybenzoic acid, reference compound], the IC50 in [4] (Keratinocyte, 72 h, read-out: IC50 (inhibitory concentration)) turned out to be 1600 µM. In data set [6], the CC50 at 72 h stood at 6 mM and the selectivity ratio stood at 3.8.
With `CCOC(=O)c1ccccc1OC(=O)CCCCCCCC(=O)Oc1ccccc1C(=O)OCC` [di(ethyl salicylate)azelate, Nonanedioic acid, di-[(2'-ethoxycarbonyl)phenyl]ester], the reduction of comedones entry in [7] (10% topical, once daily five weekdays for three weeks) is reported as “effective in the reduction of comedones; also recorded: All three treated ears showed a marked reduction of the comedones”. The “comedolytic effect compared with 0.025% Retin A Cream” value in [7] (10% topical, rabbit ear) is recorded as “comparable to the effect of 0.025% Retin A Cream”. In addition, the “comedolytic effect compared with 20% azelaic acid preparation of the prior art” value in data set [7] (10% topical, rabbit ear, comparison with Lee et al.) is listed as “superior to a 20% (1,060 mmole/ml) azelaic acid preparation”. In addition, in data set [7] (topical, rabbit ear, Retin A at 0.025%), the “inflammatory response in treated area” value is on record as “did not induce any inflammatory response in the treated area; also recorded: no inflammatory reaction”. The “skin irritation in treated cats” value in [8] was “No skin irritation was noticed in any of the treated cats”. The “response of chin acne” value in data set [8] (four cats) is “Three of the four cats responded to treatment within 10 days; also recorded: Three of the four cats responded to treatment within ten days”. Besides, the “response of furunculosis (eczema)” value in data set [8] (one cat) is “responded positively; also recorded: successfully treated”. Also, the “skin reaction / irritation” value in data set [9] is “did not irritate the skin; also recorded: no sign of any skin reaction”. Further, the “signs of skin irritation” value in [10] is listed as “no signs of irritation”; in data set [10] (setting [16]), “no signs of skin irritation were observed”. For the same compound, the “sebum value (skin oiliness) after treatment” value in data set [11] is 205 units. Moreover, the “improvement of lesions and hair growth” value was “After one week of treatment, there was a marked improvement in the appearance of all treated lesions; also recorded: hair seemed to regrow and the skin looked healthy. This improvement persisted throughout 14 days of treatment and observation” in data set [12]; “After one week of treatment, there was a marked improvement in the appearance of all treated lesions. Hair regrew and the skin looked healthy” in data set [12] (setting [16]). Further, the IC50 in data set [4] (setting [13]) and in data set [4] (setting [14]) was 300 µM throughout. Also, in [4], the “potency in inhibiting cell proliferation (in words)” value is “significantly more potent than azelaic acid and salicylic acid”. In [6], this compound registered a CC50 of 3 µM. Besides, the CC50 at 72 h in data set [6] came to 3 mM. In addition, the selectivity ratio in data set [6] (Safety factor (CD50/ID50)) is 10; in [6] (setting [15]) it was 6.6 to 10; in data set [6] (therapeutic safety margin), 6.6 to 10.

The record behind these values is US6180669A, “Method for treatment of dermatological disorders” (priority 1999, dated 2001).
